From patent publication US20230226198A1, “Artemisinin Derivatives” (DA ZEN THERANOSTICS, INC., priority 2019, published 2023) come the findings set out here.

Test [1] relates to human prostate tumors (22Rv1 cells). Put plainly: Human prostate tumor model, subcutaneous 22Rv1 tumors in nude mice. Type of test: in vivo, athymic nude mice. Here is the method:
Example 4 A/B: Human cancer cells are subcutaneously (s.c.) implanted (1×10^6) into 4- to 6-week-old athymic nude mice (National Cancer Institute). When tumor sizes in the mice reach between 1 and 6 mm in diameter as assessed by in vivo bioluminescence imaging or by palpation, mice are injected once or multiple times i.p. with the drug, e.g. DZ3a, DHA or o THAD. For mice bearing 22Rv1 tumors, DZ3a (2, 4, 8 and 16 mg/kg) or DHA (e.g. 4.7 mg/kg) is injected twice a week for 5.5 weeks. Whole body optical imaging is taken at 24 hours or as indicated using a Kodak Imaging Station 4000 MM equipped with fluorescent filter sets (excitation/emission, 800:850 nm), with a field of view of 120 mm in diameter, a frequency rate for NIR excitation light of 2 mW/cm^2, and the following camera settings; maximal gain, 2-2 binning, 1,024×1,024 pixel resolution, exposure time of 5 seconds. Live mice are alternatively/additionally imaged by an Olympus OV100 Whole Mouse Imaging System (excitation, 762 nm; emission, 800 nm; Olympus Corp.), containing a MT-20 light source (Olympus Biosystems) and DP70 CCD camera (Olympus). Before imaging, mice are anesthetized with isoflurane (2.5 units), and maintained in an anesthetized state during imaging. Alternatively, a THAD may be compared to DZ3a. […]

The test system of test [2] is pATM, γH2AX, cytochrome c. Put plainly: Western blot analysis of DNA damage and mitochondrial markers. In kind it is cell-based. As for the experimental part: The western blot analysis is performed as follows: Protein lysates (25 ug/sample) are separated by electrophoresis into the SDS-PAGE, which is then transferred to a nitrocellulose membrane for immunoblotting analysis. The protein membranes are blocked with 5% non-fat milk in PBS at room temperature (RT) for 1 h, followed by incubation with primary antibodies against proteins of interests diluted in 2% BSA in Phosphate Buffered Saline with Tween-20 (PBST) at 1:500 or 1:1000 at 4° C. overnight. The membranes are washed with PBST three times at 5 min for each wash on an orbital shaker, and then incubated with secondary antibodies against the species of the primary antibodies (i.e. anti-mouse or anti-rabbit) diluted in 5% non-fat milk in PBST for 1 h at RT with shaking. After the secondary antibody, the membranes are washed three times for 5 min each, and subjected to chemiluminescence imaging with ECL substrates (e.g. Pierce ECL Plus™, Thermo Fisher Scientific), to detect the protein bands of interest. Preliminary experiments indicate that the THAD as described herein may have an increased effect compared to DZ3a.
On the technique in general: In western blotting, separated proteins are transferred to a membrane and probed.

The next test deals with C4-2B MDVR cells. The experiment in a line: Seahorse XF mitochondrial function (OCR/ECAR). In kind it is cell-based, human. Particulars: 5 uM. As for the experimental part:
Example 5 C: To determine mitochondrial function of cancer cells (here C4-2B MDVR), the cells are treated with vehicle, DZ (5 uM), DHA (5 uM), and DZ-003 (5 uM) over 12 hours, and the oxygen consumption rate (OCR) from respiration and extracellular acidification rate (ECAR) from glycolysis of the live cells is determined in a metabolic chamber in a 24-well plate format using a Seahorse XF analyzer (Seahorse XFe24, Agilent, Calif.). Reagents (drugs/controls) are added to the wells just before start of the recording at time 0, and the effect of the drugs on the basal mitochondrial function is recorded by the analyzer for about 12 hours (720 minutes). All reagents used are Agilent reagents. Cells are seeded and cultured in Seahorse XF RPMI Medium, pH 7.4. The seeding rate is 8×10^5 for the cells to reach about 90% confluency within about 24 hours when the analysis is started. The protocol is essentially performed as per the standard protocol of the manufacturer, removing the medium, washing the cells once with XF Real-Time ATP Rate Assay Medium, then starting the measurement as per the instrument's pre-programming and subsequent real-time measurements of OCAR/ECAR. Preliminary experiments indicate that the THAD as described herein may have an increased effect compared to DZ3a.

The next test concerns C4-2 MDVR cells. Put plainly: JC-1 staining, mitochondrial membrane potential by flow cytometry. Particulars: 5 uM, 16 h. In kind it is cell-based, human. Here is the method:
Example 5D: JC-1 staining and measuring JC-1 fluorescence is performed by flow cytometry to detect the ratio of green and red fluorescence. C4-2 MDVR cells are treated with vehicle (negative control), DHA (5 uM), and DZ-003 (5 uM) for 16 h, followed by JC-1 staining (2 uM) at 37° C. for 30 min, to determine the mitochondrial membrane potential by flow cytometry where JC-1 remains as a monomer in the cytosol that emits green fluorescence as an indication of depolarized membrane potential, and JC-1 forms aggregates in intact mitochondria that emits red fluorescence. […] Preliminary experiments indicate that the THAD as described herein may provide a similar or increased effect.
(A flow cytometer gives signals particle by particle.)

The structures appear in SMILES notation. Where only a bound is given, the exact number is not on record here.

As for `C[C@@H]1CC[C@H]2[C@@H](C)C(OC(=O)CCCCCN3/C(=C/C=C4\CCCC(/C=C/C5=[N+](CCCCS(=O)(=O)[O-])c6ccccc6C5(C)C)=C4Cl)C(C)(C)c4ccccc43)O[C@@H]3OC4(C)CC[C@@H]1[C@]32OO4` (stereo in doubt) [DZ3a], in test [1] (DZ-DHA-monoester 2 to 16 mg/kg, DHA 4.7 mg/kg, i.p. twice a week for 5.5 weeks, versus vehicle), the “inhibition of tumor volume increase” value is recorded as “similarly inhibit increase in tumor volume compared to the neg. control”. The “tumor inhibition, lowest dose versus higher doses” value in test [1] (about 2 mg/kg versus higher doses up to 16 mg/kg) is recorded as “shows better tumor inhibition than other higher doses”. In addition, in test [2], the “DNA damage (levels of pATM and γH2AX)” value is reported as “induces DNA damage”; the “depletion of mitochondria (levels of cytochrome c)” value is on record as “depletes mitochondria”. Moreover, in the test on C4-2B MDVR cells, the “time at which lowering of OCR starts” value is at most 250 min and the “time until which OCR continues to lower before sustained lowered OCR” value is “about 500 minutes”. In the test on C4-2B MDVR cells (over 12 hours), the “lowering of OCR (in words)” value was “can greatly lower the mitochondrial oxygen consumption rate”. The “mitochondrial oxygen consumption rate (OCR) after treatment” value in the test on C4-2B MDVR cells (over 12 hours, from about 700-800 pmol/min) was “less than 300 pmol/min”. Moreover, the “mitochondrial membrane potential (JC-1 fluorescence)” value in the test on C4-2 MDVR cells is listed as “induces depolarization of mitochondrial membrane potential”.
